These results are taken from patent publication US9480662B1 (priority 2015, dated 2016).

One data set in a line: in vivo. As to the method: The low dose of 1 mg represents the largest potential human dose on an mg/kg basis. The high dose of 20 mg represents the largest potential total human dose unadjusted for body weight.
Pharmacokinetic parameters were determined by non-compartmental methods using Phoenix™ WinNonlin® (Version 6.3.0) Model: Plasma Data, Extravascular Administration for individual serial sample collection data (Pharsight Corporation). Area under the curve values were calculated using the linear trapezoidal rule with linear interpolation. […] Nominal sample collection time was used for the analysis unless the actual sample collection time exceeded the allowable collection window for the respective time; in which case, the actual sample collection time was used. Pharmacokinetic parameter data manipulation was performed using Excel 2010 (Microsoft Corporation).
Pharmacokinetic parameters determined were defined as follows: • Cmax: Maximum observed concentration occurring at Tmax. Tmax: Time of maximum observed concentration. • AUC0-t: Area under the curve from the time of dosing to the time of the last observation.

The conditions of data set [1]: oral, cited from earlier work.
Data set [2] concerns postmenopausal hysterectomized patients with atrophic vaginitis. Kind of data set: Pilot study of tamoxifen citrate vaginal suppository: vaginal pH. Type of data set: in vivo, human. As to the method:
(§1) Methodology. Open-label prospective cohort study. Postmenopausal women with atrophic vaginitis were confirmed by vaginal pH. At baseline, vaginal pH and measure of their subjective vaginal dryness based on a VAS vaginal dryness. Four subjects were treated with vaginal suppositories of tamoxifen citrate for three months. After eight weeks of treatment, subjects had pharmacokinetic studies of the vaginal suppository.
(§2) Research Design. Healthy women with atrophic vaginitis were recruited to this study. To be eligible to enroll in the study, subjects underwent one screening visit. This visit was to determine the subject's vaginal pH and to measure of their subjective vaginal dryness based on a VAS. Once the subject met eligibility criteria, they received study medication.
(§3) Subjects received supplies of the study drug every six weeks.
(§4) Duration of Treatment. Participants were given the vaginal suppository every day for one week and then two times per week thereafter for 3 months. They were told how to insert the test drug (using the applicator, place the study drug deep into the vagina) and the dosing schedule.
(§5) Statistical Methods. The primary endpoints are changes in the self-assessment of vaginal dryness and vaginal pH defined as the difference between the baseline and the 3-month measurements. Descriptive statistics provided for the continuous study endpoints will include mean, median, standard deviation, and 95% confidence intervals. Descriptive statistics provided for categorical endpoints will include frequencies, percents, and 95% confidence intervals. Missing values of a variable will be imputed using the last observed value for the participant. Descriptive statistics will be provided with and without imputation of missing values.

For data set [3] the test system is unchanged. Kind of data set: Pilot study of tamoxifen citrate vaginal suppository: self-assessment of vaginal dryness (VAS). Type of data set: in vivo, human. As to the method:
as §1, §2, §3, §4, §5

The next data set has as its system female rabbits. Kind of data set: 28-day intravaginal irritation study, modified Draize vaginal scoring. It counts as in vivo, New Zealand White rabbit. As to the method: The testing was conducted following once daily intravaginal administration to female rabbits for 28 days to provide evaluation of the reversibility, progression, or delayed appearance of any observed changes following a 14-day postdose observation period. The animal model most commonly used to evaluate safety of vaginally administered products is the rabbit and the ovariectomized rat. However, the rabbit is considered the more sensitive model, and thus, was selected for this study.
Assessment of toxicity and/or irritation was based on mortality, clinical observations, vaginal irritation scores, body weight, physical examinations; clinical pathology, anatomic pathology, and histopathological grading of vaginal tissues. Treatment-related microscopic findings occurred in the proximal, mid, and distal vagina.
A total of 26 female experimentally naïve New Zealand White Hra:(NZW)SPF albino rabbits (approximately 7.5 months of age at receipt) were received from Covance Research Products, Greenfield, Ind. During the 9-day acclimation period, the animals were observed daily with respect to general health and any signs of disease.
The vaginal region of the animals was evaluated for signs of irritation using a modified Draize scoring system as presented in the following table. Evaluations were conducted prior to each daily dose and daily during the recovery period. Any abnormalities observed during this examination were documented as a detailed clinical observation. A score of “1” or above was confirmed by a member of the veterinary staff.

For data set [4], the system named is postmenopausal hysterectomized patients with atrophic vaginitis. The settings on record: 3 months of vaginal suppository, 4 patients.
Experimental: The primary efficacy endpoints were normalization of vaginal pH and improvement in vaginal dryness symptom. Safety assessments consisted of monitoring and recording all adverse events and serious adverse events. […] The blood tests were measured after 5 hours after vaginal administration.
[5] abbreviates: Day 28, 1 and 20 mg/mL groups, female rabbits.
Setting [6] is: female, New Zealand White, rabbit, in vivo.
Setting [7] is: 20 mg vaginal suppository daily for one week then twice per week, month 3, 4 subjects.
The mark [8] stands for this setting: 20 mg vaginal suppository, month 3 versus enrollment, negative = decrease.
[9] abbreviates: baseline before treatment, 4 subjects.

As to `CC/C(=C(\c1ccccc1)c1ccc(OCCNC)cc1)c1ccccc1` [N-Desmethyltamoxifen], the “Tmax (median)” value in “in vivo” (rabbit, in vivo) was 1 h.

`CCC(=C(c1ccc(O)cc1)c1ccc(OCCN(C)C)cc1)c1ccccc1` [4-Hydroxytamoxifen]: in “in vivo” (setting [5]), the “Ratio of high to low mean values, AUC0-t/Dose” value was 3.16 and the “Ratio of high to low mean values, Cmax/Dose” value is 4.24. Besides, in “in vivo” (Day 28, High Dose 20 mg/mL, female rabbits), the “Ratio of mean metabolite to Tamoxifen AUC0-t values” turned out to be 0.148. For the same molecule, in the data set “in vivo” (Day 28, Low Dose 1 mg/mL, female rabbits), the “Ratio of mean metabolite to Tamoxifen AUC0-t values” came to 0.0702. In addition, in the data set “in vivo” (rabbit, in vivo), the “Median Tmax, range over dose groups” value fell in the range of 1 to 8 h.

`CC/C(=C(\c1ccccc1)c1ccc(OCCN(C)C)cc1)c1ccccc1` [Tamoxifen, 1-(p-dimethylamino-ethoxphenyl)-2-ethyl-1,2-diphenylethylene, reference compound]: in “in vivo” (setting [6]), the “Mean AUC0-t, range over dose groups” value was in the range of 8.85 to 26.5 ng·h/mL and the “Mean Cmax, range over dose groups” value was in the range of 0.824 to 2.33 ng/mL. In addition, the Tmax in the data set “in vivo” (female, New Zealand White, rabbit, in vivo, Median Tmax, range over dose groups) was 0.5 to 1 h. Moreover, the Tmax in “in vivo” (female, New Zealand White, rabbit, in vivo, Tmax (median)) stood at 1 h. For the same molecule, the “time to steady state concentrations” value in data set [1] (after initiation of therapy) is “about 4 weeks”. For the same molecule, in data set [1] (once daily for 3 months), the “average steady state plasma concentration” value is 122 ng/mL.

Take `CC/C(=C(\c1ccccc1)c1ccc(OCCN(C)C)cc1)c1ccccc1.O=C(O)CC(O)(CC(=O)O)C(=O)O` [tamoxifen citrate, (Z) 2-[4-(1,2-diphenyl-1-butenyl)phenoxy]-N, N-dimethylethanamine 2-hydroxy-1,2,3-propanetricarboxylate]: the “pH Month 3, median” value in data set [2] (setting [7]) was found to be 5.0. In addition, the “vaginal pH, Paired Difference enrollment to month 3, median” value in data set [2] (setting [8]) is −2.0. For the same molecule, the “lowering of vaginal pH compared with conjugated estrogens” value in data set [2] (after 3 months, twice per week regimen) is listed as “as effective as conjugated estrogens”. In data set [2] (setting [9]), the “pH Enrollment, median” value came out at 7.1. For the same molecule, the “Vaginal Dryness Month 3, median (VAS)” value in data set [3] (setting [7]) was determined as 3.0. Further, the “Vaginal Dryness, Paired Difference enrollment to month 3, median” value in data set [3] (setting [8]) was −5.5. Besides, the “Vaginal Dryness Enrollment, median (VAS)” value in data set [3] (setting [9]) is listed as 8.0. In the data set on female rabbits (1 and 20 mg/mL intravaginal once daily, 28 days), the “vaginal irritation (erythema, edema scores)” value was “no test article-related vaginal irritation”. Also, the “vaginal irritation during recovery period” value with female rabbits (14-day recovery period) is “no signs of vaginal irritation”. In addition, the “vaginal irritation compared with vehicle control” value with female rabbits (low and high doses (1 and 20 mg/mL), 28 days) is reported as “did not appear to be any more irritating than the vehicle control”. In addition, the “drop-outs, serious adverse events, deaths” value in data set [4] was “no patient drop-outs, serious adverse events, or deaths”.

The term Tmax denotes the time from dosing to the highest level.
